Assay results: article PMC7321319, “Comparative Molecular Transporter Properties of Cyclic Peptides Containing Tryptophan and Arginine Residues Formed through Disulfide Cyclization” (Molecules, 2020)

System: LLC-PK1, CCRF-CEM, CRL-1739, MDA-MB-231 and SKOV-3 cell lines
Experiment: MTS cell viability assay, statements over the whole cell line panel
Format: cell-based
Conditions: Dox 5 µM, 24 and 72 h, 37 °C, n = 3
Method: To evaluate the cytotoxicity of synthesized linear (C(WR)xC) and cyclic [C(WR)xC] […] Doxorubicin (Dox, 5 µM) was used as a positive control.
The in vitro cytotoxicity of the peptides was evaluated using the human leukemia carcinoma cell line (CCRF-CEM), normal kidney cell line (LLC-PK1), gastric adenocarcinoma (CRL-1739), ovarian (SKOV-3), and breast carcinoma (MDA-MB-231) cell lines to determine the toxicity of the peptides according to the previously reported procedure [17]. CCRF-CEM cells were seeded at 50,000 cells in 0.1 mL per well in 96-well plates. Other cells were seeded at 5,000 cells in 0.1 mL per well in 96-well plates. All cell lines were seeded in RPMI-1640 medium (pH 7.4) containing FBS (10%), 24 h prior to the experiment. […] This generates formazan crystals which are soluble in cell culture medium and can be measured at 490 nm. Cell viability was then determined by measuring the fluorescence intensity at 490 nm using a SpectraMaxM2 microplate spectrophotometer (Molecular Devices, San Jose, CA, USA). The percentage of cell survival was calculated as [(OD value of cells treated with the test mixture of compounds)−(OD value of culture medium)]/[(OD value of control cells) − (OD value of culture medium)] × 100%.

Question: With COc1cccc2c1C(=O)c1c(O)c3c(c(O)c1C2=O)C[C@@](O)(C(=O)CO)C[C@@H]3O[C@H]1C[C@H](N)[C@H](O)[C@H](C)O1 [Dox, Doxorubicin] as the molecule, how does the “cytotoxicity (percentage of cell survival), positive control” value read?
Answer: cytotoxic even at 5 µM
